Assay results published in patent publication US11479546B2, “Antimalarial hexahydropyrimidine analogues” (UCB Biopharma SRL, priority 2018, dated 2022).

Test system: Plasmodium falciparum 3D7
Test: P. falciparum 3D7 asexual blood stage assay, Assay Procedure Version 2 (SYBR green readout)
Type: cell-based
Details: Plasmodium falciparum, 3D7, Erythrocyte, 72 h, Version 2 of the assay procedure (asterisk *); 72 h incubation in infected erythrocytes; 50,000 nM to 15 nM
How it was run: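 P. falciparum 3D7 in A+ erythrocytes (5% haematocrit, 0.5% parasitaemia) exposed 72 h at 37 °C (1% O2, 3% CO2) to 20-point 1.5-fold titrations, final 50,000–15 nM in 0.5% DMSO. SYBR green in lysis buffer overnight, fluorescence 485/528 nm; % inhibition vs mefloquine and DMSO controls, EC50 from biphasic two-site fit.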

IC50 [nM]	Compound
131	C[C@@]1(c2cccc(Nc3ccc(F)cc3S(C)(=O)=O)c2Cl)CC(=O)N(C2CCOCC2)C(=N)N1 [Example 104, (6S)-6-{2-Chloro-3-[4-fluoro-2-(methylsulfonyl)anilino]-phenyl}-2-imino-6-methyl-3-(tetrahydropyran-4-yl)-hexahydropyrimidin-4-one]
318	CC(C)(C)c1ccc(Nc2cccc([C@]3(C)CC(=O)N(C4CCOCC4)C(=N)N3)c2Cl)cn1 [Example 105, (6S)-6-{3-[(6-tert-Butylpyridin-3-yl)amino]-2-chlorophenyl}-2-imino-6-methyl-3-(tetrahydro-pyran-4-yl)hexahydropyrimidin-4-one]
374	C[C@@]1(c2cccc(Nc3ccc(C4CCC4)nc3)c2Cl)CC(=O)N(C2CCOCC2)C(=N)N1 [Example 106, (6S)-6-{2-Chloro-3-[(6-cyclo-butylpyridin-3-yl)amino]-phenyl}-2-imino-6-methyl-3-(tetrahydropyran-4-yl)-hexahydropyrimidin-4-one]
863	CC(C)(C)c1cnc(Nc2cccc([C@]3(C)CC(=O)N(C4CCOCC4)C(=N)N3)c2Cl)cn1 [Example 107, (6S)-6-{3-[(5-tert-Butylpyrazin-2-yl)amino]-2-chlorophenyl}-2-imino-6-methyl-3-(tetrahydro-pyran-4-yl)hexahydropyrimidin-4-one]
2040	C[C@@]1(c2cccc(Nc3ccn4ccnc4c3)c2Cl)CC(=O)N(C2CCOCC2)C(=N)N1 [Example 108, (6S)-6-[2-Chloro-3-(imidazo-[1,2-a]pyridin-7-ylamino)-phenyl]-2-imino-6-methyl-3-(tetrahydropyran-4-yl)-hexahydropyrimidin-4-one]
814	C[C@@]1(c2cccc(Nc3ccccc3N=S(C)(C)=O)c2Cl)CC(=O)N(C2CCOCC2)C(=N)N1 [Example 109, (6S)-6-[2-Chloro-3-(2-{[dimethyl(oxo)-λ^6-sulfanylidene]amino}anilino)-phenyl]-2-imino-6-methyl-3-(tetrahydropyran-4-yl)-hexahydropyrimidin-4-one]
227	Cc1cc(Cl)c(Nc2cccc([C@]3(C)CC(=O)N(C4CCOCC4)C(=N)N3)c2Cl)cn1 [Example 110, (6S)-6-{2-Chloro-3-[(4-chloro-6-methylpyridin-3-yl)amino]-phenyl}-2-imino-6-methyl-3-(tetrahydropyran-4-yl)-hexahydropyrimidin-4-one]
248	CCc1ccc(Nc2cccc([C@]3(C)CC(=O)N(C4CCOCC4)C(=N)N3)c2Cl)cn1 [Example 111, (6S)-6-{2-Chloro-3-[(6-ethyl-pyridin-3-yl)amino]phenyl}-2-imino-6-methyl-3-(tetrahydro-pyran-4-yl)hexahydropyrimidin-4-one]
642	C[C@@]1(c2cccc(Nc3ccc(OCC(F)(F)F)nc3)c2Cl)CC(=O)N(C2CCOCC2)C(=N)N1 [Example 112, (6S)-6-(2-Chloro-3-{[6-(2,2,2-trifluoroethoxy)pyridin-3-yl]-amino}phenyl)-2-imino-6-methyl-3-(tetrahydropyran-4-yl)hexahydropyrimidin-4-one]
225	C[C@@]1(c2cccc(Nc3ccc(N4CCC4)nc3)c2Cl)CC(=O)N(C2CCOCC2)C(=N)N1 [Example 113, (6S)-6-(3-{[6-(Azetidin-1-yl)-pyridin-3-yl]amino}-2-chloro-phenyl)-2-imino-6-methyl-3-(tetrahydropyran-4-yl)-hexahydropyrimidin-4-one]
519	C[C@@]1(c2cccc(Nc3ccc(-n4cncn4)nc3)c2Cl)CC(=O)N(C2CCOCC2)C(=N)N1 [Example 114, (6S)-6-(2-Chloro-3-{[6-(1,2,4-triazol-1-yl)pyridin-3-yl]-amino}phenyl)-2-imino-6-methyl-3-(tetrahydropyran-4-yl)hexahydropyrimidin-4-one]
668	Cn1ncc2cc(Nc3cccc([C@]4(C)CC(=O)N(C5CCOCC5)C(=N)N4)c3Cl)cnc21 [Example 115, (6S)-6-{2-Chloro-3-[(1-methyl-pyrazolo[3,4-b]pyridin-5-yl)-amino]phenyl}-2-imino-6-methyl-3-(tetrahydropyran-4-yl)hexahydropyrimidin-4-one]
556	Cn1cnc2cc(Nc3cccc([C@]4(C)CC(=O)N(C5CCOCC5)C(=N)N4)c3Cl)cnc21 [Example 116, (6S)-6-{2-Chloro-3-[(3-methyl-imidazo[4,5-b]pyridin-6-yl)-amino]phenyl}-2-imino-6-methyl-3-(tetrahydropyran-4-yl)hexahydropyrimidin-4-one]
707	Cn1nnc(-c2ccc(Nc3cccc([C@]4(C)CC(=O)N(C5CCOCC5)C(=N)N4)c3Cl)cn2)n1 [Example 117, (6S)-6-(2-Chloro-3-{[6-(2-methyltetrazol-5-yl)pyridin-3-yl]amino}phenyl)-2-imino-6-methyl-3-(tetrahydropyran-4-yl)hexahydropyrimidin-4-one]
138	C[C@@]1(c2cccc(Nc3ccc(Cl)cc3S(C)(=O)=O)c2Cl)CC(=O)N(C2CCOCC2)C(=N)N1 [Example 118, (6S)-6-{2-Chloro-3-[4-chloro-2-(methylsulfonyl)anilino]-phenyl}-2-imino-6-methyl-3-(tetrahydropyran-4-yl)-hexahydropyrimidin-4-one]
237	C[C@@]1(c2cccc(Nc3ccc(CC(F)(F)F)nc3)c2Cl)CC(=O)N(C2CCOCC2)C(=N)N1 [Example 119, (6S)-6-(2-Chloro-3-{[6-(2,2,2-trifluoroethyl)pyridin-3-yl]-amino}phenyl)-2-imino-6-methyl-3-(tetrahydropyran-4-yl)hexahydropyrimidin-4-one]
4510	C[C@@]1(c2cccc(Nc3ccc(C#N)nc3)c2Cl)CC(=O)N([C@H]2C[C@@](C)(O)C2)C(=N)N1 [Example 122, 5-{2-Chloro-3-[(4S)-1-(3-hydroxy-3-methylcyclobutyl)-2-imino-4-methyl-6-oxo-hexahydropyrimidin-4-yl]-anilino}pyridine-2-carbonitrile]
552	C[C@@]1(c2cccc(Nc3ccc(C#N)cc3)c2Cl)CC(=O)N([C@H]2C[C@@](C)(O)C2)C(=N)N1 [Example 123, 4-{2-Chloro-3-[(4S)-1-(3-hydroxy-3-methylcyclobutyl)-2-imino-4-methyl-6-oxo-hexahydropyrimidin-4-yl]-anilino}benzonitrile]
509	C[C@@]1(c2cccc(Nc3ccc(C(F)(F)F)nc3)c2Cl)CC(=O)N([C@H]2C[C@@](C)(O)C2)C(=N)N1 [Example 124, (6S)-6-(2-Chloro-3-{[6-(trifluoromethyl)pyridin-3-yl]-amino}phenyl)-3-(3-hydroxy-3-methylcyclobutyl)-2-imino-6-methylhexahydropyrimidin-4-one]
1100	Cc1ccc(Nc2cccc([C@]3(C)CC(=O)N([C@H]4C[C@@](C)(O)C4)C(=N)N3)c2Cl)cn1 [Example 125, (6S)-6-{2-Chloro-3-[(6-methyl-pyridin-3-yl)amino]phenyl}-3-(3-hydroxy-3-methylcyclo-butyl)-2-imino-6-methyl-hexahydropyrimidin-4-one]
1750	C[C@@]1(c2cccc(Nc3ccc(F)cn3)c2Cl)CC(=O)N([C@H]2C[C@@](C)(O)C2)C(=N)N1 [Example 126, (6S)-6-{2-Chloro-3-[(5-fluoro-pyridin-2-yl)amino]phenyl}-3-(3-hydroxy-3-methylcyclo-butyl)-2-imino-6-methyl-hexahydropyrimidin-4-one]
184	C[C@@]1(c2cccc(Nc3ccc(F)cc3C#N)c2Cl)CC(=O)N([C@H]2C[C@@](C)(O)C2)C(=N)N1 [Example 127, 2-{2-Chloro-3-[(4S)-1-(3-hydroxy-3-methylcyclobutyl)-2-imino-4-methyl-6-oxo-hexahydropyrimidin-4-yl]-anilino}-5-fluorobenzonitrile]
717	C[C@@]1(c2cccc(Nc3ccc(OC(F)F)nc3)c2Cl)CC(=O)N([C@H]2C[C@@](C)(O)C2)C(=N)N1 [Example 128, (6S)-6-(2-Chloro-3-{[6-(difluoromethoxy)pyridin-3-yl]-amino}phenyl)-3-(3-hydroxy-3-methylcyclobutyl)-2-imino-6-methylhexahydropyrimidin-4-one]
1330	Cc1cnc(Nc2cccc([C@]3(C)CC(=O)N([C@H]4C[C@@](C)(O)C4)C(=N)N3)c2Cl)cn1 [Example 129, (6S)-6-{2-Chloro-3-[(5-methyl-pyrazin-2-yl)amino]phenyl}-3-(3-hydroxy-3-methylcyclo-butyl)-2-imino-6-methyl-hexahydropyrimidin-4-one]
744	C[C@@]1(c2cccc(Nc3ccc(OC(F)(F)F)nc3)c2Cl)CC(=O)N([C@H]2C[C@@](C)(O)C2)C(=N)N1 [Example 130, (6S)-6-(2-Chloro-3-{[6-(trifluoromethoxy)pyridin-3-yl]-amino}phenyl)-3-(3-hydroxy-3-methylcyclobutyl)-2-imino-6-methylhexahydropyrimidin-4-one]
18300	C[C@@]1(c2cccc(Nc3ccnc(C(F)(F)F)c3)c2Cl)CC(=O)N([C@H]2C[C@@](C)(O)C2)C(=N)N1 [Example 131, (6S)-6-(2-Chloro-3-{[2-(trifluoromethyl)pyridin-4-yl]amino}phenyl)-3-(3-hydroxy-3-methylcyclobutyl)-2-imino-6-methylhexahydropyrimidin-4-one]
623	C[C@@]1(c2cccc(Nc3ccn4nccc4c3)c2Cl)CC(=O)N([C@H]2C[C@@](C)(O)C2)C(=N)N1 [Example 132, (6S)-6-[2-Chloro-3-(pyrazolo-[1,5-a]pyridin-5-ylamino)-phenyl]-3-(3-hydroxy-3-methyl-cyclobutyl)-2-imino-6-methyl-hexahydropyrimidin-4-one]
562	C[C@@]1(c2cccc(Nc3ccc(C#N)cc3OC(F)F)c2Cl)CC(=O)N([C@H]2C[C@@](C)(O)C2)C(=N)N1 [Example 133, 4-{2-Chloro-3-[(4S)-1-(3-hydroxy-3-methylcyclobutyl)-2-imino-4-methyl-6-oxo-hexahydropyrimidin-4-yl]-anilino}-3-(difluoromethoxy)-benzonitrile]
